# Measured values from ChEMBL document CHEMBL3045260, “Synthesis, anti-microbial evaluation, and QSAR studies of 4-amino-3-hydroxy-naphthalene-1-sulfonic acid derivatives” (2012).
# What was measured:
# Format in all cases: functional
# Escherichia coli [1] = assay: Bactericidal activity against Escherichia coli MTCC 1652
# Escherichia coli [2] = assay: Ratio of MBC to MIC for Escherichia coli MTCC 1652
# Aspergillus niger [3] = assay: Fungicidal activity against Aspergillus niger MTCC 8189
# Aspergillus niger [4] = assay: Ratio of MFC to MIC for Aspergillus niger MTCC 8189
# Candida albicans [5] = assay: Fungicidal activity against Candida albicans MTCC 227
# Staphylococcus aureus [6] = assay: Ratio of MBC to MIC for Staphylococcus aureus MTCC 2901
# Bacillus subtilis [7] = assay: Antibacterial activity against Bacillus subtilis MTCC 2063 after 24 hr by tube dilution method
# Aspergillus niger [8] = assay: Antifungal activity against Aspergillus niger MTCC 8189 after 7 days by tube dilution method
# Bacillus subtilis [9] = assay: Ratio of MBC to MIC for Bacillus subtilis MTCC 2063
# Candida albicans [10] = assay: Antifungal activity against Candida albicans MTCC 227 after 48 hr by tube dilution method
# Staphylococcus aureus [11] = assay: Bactericidal activity against Staphylococcus aureus MTCC 2901
# Bacillus subtilis [12] = assay: Bactericidal activity against Bacillus subtilis MTCC 2063
# Candida albicans [13] = assay: Ratio of MFC to MIC for Candida albicans MTCC 227
# Escherichia coli [14] = assay: Antibacterial activity against Escherichia coli MTCC 1652 after 24 hr by tube dilution method
# Staphylococcus aureus [15] = assay: Antibacterial activity against Staphylococcus aureus MTCC 2901 after 24 hr by tube dilution method
SMILES,MBC (Escherichia coli [1]),Ratio (Escherichia coli [2]),MFC (Aspergillus niger [3]),Ratio (Aspergillus niger [4]),MFC (Candida albicans [5]),Ratio (Staphylococcus aureus [6]),-logMIC (Bacillus subtilis [7]),-logMIC (Aspergillus niger [8]),Ratio (Bacillus subtilis [9]),-logMIC (Candida albicans [10]),MBC (Staphylococcus aureus [11]),MBC (Bacillus subtilis [12]),Ratio (Candida albicans [13]),-logMIC (Escherichia coli [14]),-logMIC (Staphylococcus aureus [15])
O=CCCC/C=N/c1c(O)cc(S(=O)(=O)O)c2ccccc12,> 130 µM,3,30 µM,3,> 130 µM,3,1.41,1.41,3,1.41,> 130 µM,> 130 µM,3,1.41,1.11
O=S(=O)(O)c1cc(O)c(/N=C/C=C/c2ccccc2)c2ccccc12,> 140 µM,3,140 µM,3,> 140 µM,3,1.45,1.45,3,1.45,> 140 µM,> 140 µM,3,1.45,1.15
O=S(=O)(O)c1cc(O)c(/N=C/c2ccccc2Cl)c2ccccc12,> 140 µM,3,> 140 µM,3,> 140 µM,3,1.46,1.46,3,1.46,> 140 µM,> 140 µM,3,1.46,1.16
O=S(=O)(O)c1cc(O)c(/N=C/c2cccc(Cl)c2)c2ccccc12,> 140 µM,3,> 140 µM,3,> 140 µM,3,1.46,1.46,3,1.46,140 µM,> 140 µM,3,1.46,1.16
COc1ccccc1/C=N/c1c(O)cc(S(=O)(=O)O)c2ccccc12,> 130 µM,3,> 130 µM,3,> 130 µM,3,1.46,1.46,3,1.46,> 130 µM,> 130 µM,3,1.46,1.16
COc1cccc(/C=N/c2c(O)cc(S(=O)(=O)O)c3ccccc23)c1,> 120 µM,3,> 120 µM,3,> 120 µM,3,1.46,1.46,3,1.46,120 µM,> 120 µM,3,1.46,1.16
COc1ccc(/C=N/c2c(O)cc(S(=O)(=O)O)c3ccccc23)cc1OC,> 150 µM,3,> 150 µM,3,> 150 µM,3,1.49,1.49,3,1.49,> 150 µM,> 150 µM,3,1.49,1.19
COc1cc(/C=N/c2c(O)cc(S(=O)(=O)O)c3ccccc23)cc(OC)c1OC,> 150 µM,3,> 150 µM,3,> 150 µM,3,1.52,1.52,3,1.52,> 150 µM,> 150 µM,3,1.52,1.22
O=S(=O)(O)c1cc(O)c(/N=C/c2ccccc2)c2ccccc12,> 130 µM,3,> 130 µM,3,> 130 µM,3,1.42,1.42,3,1.42,> 130 µM,> 130 µM,3,1.42,1.12
O=S(=O)(O)c1cc(O)c(/N=C/c2cccc(O)c2)c2ccccc12,> 130 µM,3,130 µM,3,> 130 µM,3,1.44,1.44,3,1.44,> 130 µM,> 130 µM,3,1.44,1.14
COc1cccc(/C=N/c2c(O)cc(S(=O)(=O)O)c3ccccc23)c1O,> 140 µM,3,> 140 µM,3,> 140 µM,3,1.48,1.48,3,1.48,140 µM,> 140 µM,3,1.48,1.17
CCOc1cc(/C=N/c2c(O)cc(S(=O)(=O)O)c3ccccc23)ccc1O,> 130 µM,3,30 µM,3,> 130 µM,3,1.49,1.49,3,1.49,130 µM,> 130 µM,3,1.49,1.19
COc1cc(/C=N/c2c(O)cc(S(=O)(=O)O)c3ccccc23)ccc1O,> 160 µM,3,160 µM,3,> 160 µM,3,1.48,1.48,3,1.48,160 µM,> 160 µM,3,1.48,1.17
O=Cc1ccc(/C=N/c2c(O)cc(S(=O)(=O)O)c3ccccc23)cc1,> 140 µM,3,140 µM,3,> 140 µM,3,1.45,1.45,3,1.45,140 µM,> 140 µM,3,1.45,1.15
O=[N+]([O-])c1cccc(/C=N/c2c(O)cc(S(=O)(=O)O)c3ccccc23)c1,> 140 µM,3,> 140 µM,3,> 140 µM,3,1.47,1.47,3,1.47,> 140 µM,> 140 µM,3,1.47,1.17
O=S(=O)(O)c1cc(O)c(/N=C/c2ccc(Cl)cc2)c2ccccc12,> 140 µM,3,> 140 µM,3,> 140 µM,3,1.16,1.16,3,1.16,> 140 µM,> 140 µM,3,1.16,1.16
O=S(=O)(O)c1cc(O)c(/N=C/c2ccc(Cl)cc2Cl)c2ccccc12,> 140 µM,3,> 140 µM,3,> 140 µM,3,1.5,1.5,3,1.5,> 140 µM,> 140 µM,3,1.5,1.2
COc1ccc(/C=N/c2c(O)cc(S(=O)(=O)O)c3ccccc23)cc1,> 130 µM,3,130 µM,3,> 130 µM,3,1.46,1.46,3,1.46,> 130 µM,> 130 µM,3,1.46,1.16
OC(Cn1cncn1)(Cn1cncn1)c1ccc(F)cc1F [FLUCONAZOLE],,,40 µM,,,,,2.64,,2.64,,,,,
CCn1cc(C(=O)O)c(=O)c2cc(F)c(N3CCNCC3)cc21 [NORFLOXACIN],19 µM,,,,,,2.61,,,,19 µM,19 µM,,2.61,2.61
